Where a SMILES comes first, the peptide text is derived from it. Bridges are numbered along the chain shown (N, C = ends). [ ]: non-standard residue; d: D form. hPhe(3-Cl-4-CF3) = N[C@@H](CCc1ccc(C(F)(F)F)c(Cl)c1)C(=O)O; NPrPhe(4-CF3) = CCCN[C@@H](Cc1ccc(C(F)(F)F)cc1)C(=O)O; NMeGly(cPent) = CN[C@H](C(=O)O)C1CCCC1; Hyp = O=C(O)[C@@H]1C[C@@H](O)CN1; NMeL = CN[C@@H](CC(C)C)C(=O)O; NMeA = CN[C@@H](C)C(=O)O; Aze = O=C(O)[C@@H]1CCN1; Ac4c = NC1(C(=O)O)CCC1; Sar = CNCC(=O)O
What was measured:
[1] = target: GDP-bound NRAS wild-type protein (Homo sapiens, UniProt P01111); experiment: Binding to NRAS by surface plasmon resonance (SPR), Single Cycle Kinetics; settings: SPR; for NRAS/KRAS (ratio of KD value with respect to NRAS to KD value with respect to KRAS) / NRAS/KRAS (ratio of KD value for NRAS to KD value for KRAS): GDP-bound NRAS wild-type vs GDP-bound KRAS wild-type
GDP-bound NRAS wild-type protein, sequence (P01111 whole entry): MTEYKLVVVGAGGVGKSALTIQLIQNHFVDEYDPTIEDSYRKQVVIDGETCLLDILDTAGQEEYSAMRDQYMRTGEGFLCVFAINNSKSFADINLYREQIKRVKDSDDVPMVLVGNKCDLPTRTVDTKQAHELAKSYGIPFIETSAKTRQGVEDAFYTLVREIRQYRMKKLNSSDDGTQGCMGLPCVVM

[2] = target: GDP-bound HRAS wild-type protein (Homo sapiens, UniProt P01112); experiment: Binding to HRAS by surface plasmon resonance (SPR), Single Cycle Kinetics; settings: SPR; for HRAS/KRAS (ratio of KD value with respect to HRAS to KD value with respect to KRAS) / HRAS/KRAS (ratio of KD value for HRAS to KD value for KRAS): GDP-bound HRAS wild-type vs GDP-bound KRAS wild-type
GDP-bound HRAS wild-type protein, sequence (P01112 whole entry): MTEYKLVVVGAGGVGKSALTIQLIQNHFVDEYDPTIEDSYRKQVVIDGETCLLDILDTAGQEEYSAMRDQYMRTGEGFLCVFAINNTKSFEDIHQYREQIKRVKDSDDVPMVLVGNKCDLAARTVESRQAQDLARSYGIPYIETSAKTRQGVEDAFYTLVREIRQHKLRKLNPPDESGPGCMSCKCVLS

## CCO[C@@H]1C[C@H]2C(=O)NC3(CCC3)C(=O)N(C)[C@@H](C3CCCC3)C(=O)N(C)[C@H](C(=O)N3CCOCC3)CC(=O)N(C)[C@@H](Cc3ccsc3)C(=O)N[C@@H]([C@@H](C)CC)C(=O)N(C)CC(=O)N(C)[C@H]3CCCCCN(C3=O)[C@@H](Cc3ccc(C(F)(F)F)cc3)C(=O)N(C)CC(=O)N[C@@H](CCc3cc(F)c(C(F)(F)F)c(F)c3)C(=O)N2C1 [PP1164]
[1]; KD ratio
  NRAS/KRAS (ratio of KD value with respect to NRAS to KD value with respect to KRAS): B (a compound having 3 or more and less than 10 is denoted as B)
[2]; KD ratio
  HRAS/KRAS (ratio of KD value with respect to HRAS to KD value with respect to KRAS): B (a compound having 3 or more and less than 10 is denoted as B)

## CCCN1C(=O)[C@@H]2CCN2C(=O)[C@H](C)N(C)C(=O)[C@H]([C@@H](C)CC)NC(=O)[C@H](CC(C)C)N(C)C(=O)C[C@@H](C(=O)N(C)C)NC(=O)[C@H](C2CCCC2)N(C)C(=O)C2(CCC2)NC(=O)[C@@H]2C[C@@H](OCC)CN2C(=O)[C@H](CCc2ccc(C(F)(F)F)c(Cl)c2)NC(=O)CN(C)C(=O)[C@@H]1Cc1ccc(C(F)(F)F)cc1 [PP0384] ([NMeL]I[NMeA][Aze][NPrPhe(4-CF3)][Sar][hPhe(3-Cl-4-CF3)][Hyp](Et)[Ac4c][NMeGly(cPent)]D-NMe2; lactam N-11)
[1]; KD ratio NRAS/KRAS
  NRAS/KRAS (ratio of KD for GDP-bound NRAS wild-type to KD for KRAS): C (A compound having a KD ratio of 0.1 or more and less than 3 is denoted as C)
[2]; KD ratio HRAS/KRAS
  HRAS/KRAS (ratio of KD for GDP-bound HRAS wild-type to KD for KRAS): B (a compound having 3 or more and less than 10 is denoted as B)

## CCO[C@@H]1C[C@H]2C(=O)NC3(CCC3)C(=O)N(C)[C@@H](C3CCCC3)C(=O)N(C)[C@H](C(=O)N(C)C)CC(=O)N(C)[C@@H](CC)C(=O)N[C@@H]([C@@H](C)CC)C(=O)N(C)CC(=O)N(C)[C@H]3CCCCN(C3=O)[C@@H](Cc3ccc(C(F)(F)F)cc3)C(=O)N(C)CC(=O)N[C@@H](CCc3ccc(OC(F)F)c(F)c3)C(=O)N2C1 [PP0986]
[1]; KD ratio
  NRAS/KRAS (ratio of KD value with respect to NRAS to KD value with respect to KRAS): C (A compound having a KD ratio of 0.1 or more and less than 3 is denoted as C)
[2]; KD ratio
  HRAS/KRAS (ratio of KD value with respect to HRAS to KD value with respect to KRAS): C (A compound having a KD ratio of 0.1 or more and less than 3 is denoted as C)

## CCO[C@@H]1C[C@H]2C(=O)NC3(CCC3)C(=O)N(C)[C@@H](C3CCCC3)C(=O)N(C)[C@H](C(=O)N(C)C)CC(=O)N(C)[C@@H](Cc3cccs3)C(=O)N[C@@H]([C@@H](C)CC)C(=O)N(C)CC(=O)N(C)[C@H]3CCCCCN(C3=O)[C@@H](Cc3ccc(C(F)(F)F)cc3)C(=O)N(C)CC(=O)N[C@@H](CCc3cc(F)c(C(F)(F)F)c(F)c3)C(=O)N2C1 [PP1169]
[1]; KD ratio
  NRAS/KRAS (ratio of KD value with respect to NRAS to KD value with respect to KRAS): B (a compound having 3 or more and less than 10 is denoted as B)
[2]; KD ratio
  HRAS/KRAS (ratio of KD value with respect to HRAS to KD value with respect to KRAS): B (a compound having 3 or more and less than 10 is denoted as B)

## CCCN(C)C(=O)[C@@H]1CC(=O)N(C)[C@@H](COCC)C(=O)N[C@@H]([C@@H](C)CC)C(=O)N(C)CC(=O)N(C)[C@H]2C/C=C\CCN(C2=O)[C@@H](Cc2ccc(C(F)(F)F)cc2)C(=O)N(C)CC(=O)N[C@@H](CCc2ccc(C(F)(F)F)c(OC)c2)C(=O)N2C[C@H](OCC)C[C@H]2C(=O)NC2(CC(C)(C)C2)C(=O)N(C)[C@@H](C2CCCC2)C(=O)N1C [PP2012]
[1]; KD ratio
  NRAS/KRAS (ratio of KD value for NRAS to KD value for KRAS): AA (a compound having 20 or more is denoted as AA)
[2]; KD ratio
  HRAS/KRAS (ratio of KD value for HRAS to KD value for KRAS): A (a compound having 10 or more and less than 20 is denoted as A)

## CCCC[C@H]1C(=O)N[C@@H]([C@@H](C)CC)C(=O)N(C)CC(=O)N(C)[C@H]2C/C=C\CCN(C2=O)[C@@H](Cc2ccc(C(F)(F)F)cc2)C(=O)N(C)CC(=O)N[C@@H](CCc2cc(F)c(C(F)(F)F)c(F)c2)C(=O)N2C[C@H](F)C[C@H]2C(=O)NC2(CC(C)(C)C2)C(=O)N(C)[C@@H](C2CCCC2)C(=O)N(C)[C@H](C(=O)N(C)C)CC(=O)N1C [PP1693]
[1]; KD ratio
  NRAS/KRAS (ratio of KD value for NRAS to KD value for KRAS): AA (a compound having 20 or more is denoted as AA)
[2]; KD ratio
  HRAS/KRAS (ratio of KD value for HRAS to KD value for KRAS): A (a compound having 10 or more and less than 20 is denoted as A)

## CCC[C@H]1C(=O)N[C@@H]([C@H](C)CC)C(=O)N(C)CC(=O)N(C)[C@H]2C/C=C\CCN(C2=O)[C@@H](Cc2ccc(C)cc2)C(=O)N(C)CC(=O)N[C@@H](CCc2ccc(C(F)(F)F)c(Cl)c2)C(=O)N2C[C@H](OCC)C[C@H]2C(=O)NC2(CC(C)(C)C2)C(=O)N(C)[C@@H](CC(C)(C)C)C(=O)N(C)[C@H](C(=O)N(C)C)CC(=O)N1C [PP2219]
[1]
  NRAS/KRAS (ratio of KD value with respect to NRAS to KD value with respect to KRAS): A (a compound having 10 or more and less than 20 is denoted as A)
[2]
  HRAS/KRAS (ratio of KD value with respect to HRAS to KD value with respect to KRAS): A (a compound having 10 or more and less than 20 is denoted as A)
